{"source": "patent US11268069B2", "about": "“Reprogramming methods and cell culture platforms” (Fate Therapeutics, Inc., priority 2014, dated 2022)", "system": "hiPSC clone FTi111", "assay": "Thaw of hiPSC clone FTi111 into various culture environments", "assay_type": "cell-based, human", "conditions": "conventional culture with feeder cells"}
{"smiles": "O=C(NCc1ccccc1)c1csc(Nc2ccncn2)n1", "note": "[Thiazovivin]", "values": [{"measurement": "recovery of hiPSC colonies post thaw", "value": "only recovered in the presence of Thiazovivin"}]}
